Bounds are passed on as bounds.

Test [1] deals with T1, human TRPV1 (Homo sapiens, UniProt Q8NER1).
T1 construct: expressed in transfected cells
Put plainly: Capsaicin Activation Assay (FLIPR intracellular Ca2+, recombinant HEK293 cells). It counts as cell-based. As to conditions: recombinant HEK293 cells expressing hTRPV1; 50 nM capsaicin; read-out: human TRPV1 capsaicin IC50. As to the method:
(i) Capsaicin Activation Assay
Dulbecco's modified Eagle medium (DMEM) (with 4.5 mg/mL glucose) and fetal bovine serum were obtained from Hyclone Laboratories, Inc. (Logan, Utah). Dulbecco's phosphate-buffered saline (DPBS) (with 1 mg/mL glucose and 3.6 mg/l Na pyruvate, without phenol red), L-glutamine, hygromycin B, and Lipofectamine® were obtained from Life Technologies (Grand Island, N.Y.). G418 sulfate was obtained from Calbiochem-Novabiochem Corp. (San Diego, Calif.). Capsaicin (8-methyl-N-vanillyl-6-nonenamide) was obtained from Sigma-Aldrich, Co. (St. Louis, Mo.). Fluo-4 AM (N-[4-[6-[(acetyloxy)-methoxy]-2,7-difluoro-3-oxo-3H-xanthen-9-yl]-2-[2-[2-[bis[2-[(acetyloxy)methoxy]-2-oxyethyl]amino]-5-methylphenoxy]ethoxy]phenyl]-N-[2-[(acetyloxy)methoxy]-2-oxyethyl]-glycine, (acetyloxy)methyl ester) was purchased from Molecular Probes (Eugene, Oreg.).
(§1) Expression plasmids encoding the hTRPV1 cDNA were transfected into HEK293 cells using Lipofectamine®. Forty-eight hours after transfection, the neomycin-resistant cells were selected with growth medium containing 800 μg/mL Geneticin (Life Technologies, formerly Gibco BRL). Surviving individual colonies were isolated and screened for TRPV1 activity. Cells expressing recombinant TRPV1 were maintained at 37° C. in DMEM containing 4 mM L-glutamine, 300 μg/mL G418 (Calbiochem) and 10% fetal bovine serum under a humidified 5% CO2 atmosphere.
The functional activity of compounds at the TRPV1 receptor was determined by measurement of intracellular Ca^2+ levels ([Ca^2+]i) using the Fluorescence Imaging Plate Reader (FLIPR)TETRA®. All compounds were tested over a 12-point one-third-log concentration range. Compound stocks, 10 mM, were prepared in DMSO, and diluted serially across a 384-well plate using a Bravo BenchCel workstation (Agilent Technologies, Santa Clara, Calif.). A stock concentration of capsaicin (10 mM) was made in DMSO, and diluted in DPBS to a final concentration of 200 nM (4×). On the day prior to the experiment, the recombinant HEK293 cells expressing human TRPV1 (hTRPV1) were removed from tissue culture flasks and plated in growth medium into black-walled clear-bottom 384-well Biocoat™ poly-D-lysine assay plates (BD Biosciences, Bedford, Mass.) using a Multidrop® dispenser (ThermoScientific, Waltham, Mass.). […] The plated cells were incubated for 90-120 minutes in the dark at room temperature and then test compound was added to each well. Three minutes later, 200 nM capsaicin (4×) solution was added to each well in an amount sufficient to provide a final assay volume of 80 μL and capsaicin concentration of 50 nM. Fluorescence readings were made at 1 to 5 second intervals over the course of the experimental run. The peak increase in relative fluorescence units (minus baseline) was calculated, and expressed as a percentage of the 50 nM capsaicin (control) response.

Test [2] deals with T1, human TRPV1. Put plainly: Acid Activation Assay (pH 5.0, FLIPR intracellular Ca2+, recombinant HEK293 cells). The settings on record: percentage of maximal pH 5.0-induced response remaining; HEK293 hTRPV1; max concentration 37.5 μM. It counts as cell-based. As to the method:
(ii) Acid Activation Assay
Dulbecco's modified Eagle's medium (DMEM) with 4.5 mg/mL D-glucose, fetal bovine serum, L-glutamine, and 2-morpholinoethanesulfonic acid (MES) were purchased from Sigma-Aldrich Co. (St. Louis, Mo.). […] The FLIPR® Calcium 4 assay kit was purchased from Molecular Devices (Sunnyvale, Calif.).
as §1
The functional activity of compounds at the TRPV1 receptor was determined by measurement of intracellular Ca^2+ levels ([Ca^2+]i) using the Fluorescence Imaging Plate Reader (FLIPR)TETRA®. […] Compound stocks, 10 mM, were prepared in DMSO, and diluted serially across a 384-well plate using a Bravo BenchCel workstation (Agilent Technologies, Santa Clara, Calif.). On the day prior to the experiment, the recombinant HEK293 cells expressing human TRPV1 (hTRPV1) were removed from tissue culture flasks and plated in growth medium into black-walled clear-bottom 384-well Biocoat™ poly-D-lysine assay plates (BD Biosciences, Bedford, Mass.) using a Multidrop® dispenser (ThermoScientific, Waltham, Mass.). […] The plated cells were incubated for 90-120 min in the dark at 25° C. The test compounds dissolved in DMSO were then added to the plates using an Agilent Bravo workstation (Agilent Technologies Inc., Santa Clara, Calif.). Three minutes later, a pH 5.0 solution was added to each well. Reagents were delivered at a rate of 40 μL/sec, and the final assay volume was 80 μL. Acidic pH solutions were prepared by titration of DPBS/MES with 1 N HCl. The intensity of the fluorescence was captured and digitally transferred to an interfaced PC. The maximum peak measured for the concentration range tested was used to calculate the corresponding peak increase in fluorescence over baseline (relative fluorescence units) which was expressed as the percentage (max % remain) of the maximal pH 5.0-induced response.

T1 sequence (Q8NER1 whole entry): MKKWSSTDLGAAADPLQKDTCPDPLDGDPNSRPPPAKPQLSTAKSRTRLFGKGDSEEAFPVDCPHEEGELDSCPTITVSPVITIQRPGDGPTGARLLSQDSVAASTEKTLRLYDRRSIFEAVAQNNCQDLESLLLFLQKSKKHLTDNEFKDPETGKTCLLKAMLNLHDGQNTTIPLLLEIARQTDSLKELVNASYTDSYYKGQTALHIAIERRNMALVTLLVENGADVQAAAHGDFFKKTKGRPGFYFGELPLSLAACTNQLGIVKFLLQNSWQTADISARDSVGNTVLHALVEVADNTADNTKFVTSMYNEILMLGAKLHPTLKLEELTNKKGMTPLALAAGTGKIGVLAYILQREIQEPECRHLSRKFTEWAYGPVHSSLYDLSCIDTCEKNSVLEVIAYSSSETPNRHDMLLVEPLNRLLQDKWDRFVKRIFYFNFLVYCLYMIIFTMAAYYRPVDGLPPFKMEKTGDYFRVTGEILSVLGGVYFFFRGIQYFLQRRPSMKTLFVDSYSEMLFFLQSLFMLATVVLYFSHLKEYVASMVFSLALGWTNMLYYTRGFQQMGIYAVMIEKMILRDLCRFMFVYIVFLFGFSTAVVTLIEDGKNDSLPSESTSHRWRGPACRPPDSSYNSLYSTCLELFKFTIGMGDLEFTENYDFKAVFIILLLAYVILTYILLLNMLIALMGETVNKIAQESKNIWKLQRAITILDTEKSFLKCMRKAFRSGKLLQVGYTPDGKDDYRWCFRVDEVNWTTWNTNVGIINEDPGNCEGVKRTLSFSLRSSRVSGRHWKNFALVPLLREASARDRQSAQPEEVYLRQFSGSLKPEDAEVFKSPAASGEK

On to `CC1(C)C[C@@H](NC(=O)Nc2ccc(F)c3c2C[C@H](O)C3)c2cccc(F)c2O1` [Example 136, 1-[(4R)-8-fluoro-2,2-dimethyl-3,4-dihydro-2H-chromen-4-yl]-3-[(2S)-7-fluoro-2-hydroxy-2,3-dihydro-1H-inden-4-yl]urea], for which the half-maximal inhibitory concentration (IC50) (in general, the midpoint of a concentration-inhibition curve) in test [1] worked out at 2800 nM. In addition, in test [2], the “human TRPV1 H+ (max % remain)” value worked out at 5%.
As for `O=C(Nc1cccc2c1C[C@H](O)C2)N[C@@H]1CC2(CCCC2)Oc2ccccc21` [Example 128, 1-[(4R)-3,4-dihydrospiro[chromene-2,1′-cyclopentan]-4-yl]-3-[(2R)-2-hydroxy-2,3-dihydro-1H-inden-4-yl]urea], the IC50 in test [1] amounted to 410 nM. Moreover, the “human TRPV1 H+ (max % remain)” value in test [2] came to 75%.
In the case of `O=C(Nc1cccc2c1C[C@H](O)C2)N[C@@H]1CC(CF)(CF)Oc2cc(F)ccc21` [Example 129, 1-[(4R)-7-fluoro-2,2-bis(fluoromethyl)-3,4-dihydro-2H-chromen-4-yl]-3-[(2R)-2-hydroxy-2,3-dihydro-1H-inden-4-yl]urea], the IC50 in test [1] came to 360 nM. Further, the “human TRPV1 H+ (max % remain)” value in test [2] is listed as 53%.
`O=C(Nc1c(F)ccc2c1C[C@@H](O)C2)N[C@@H]1CC(CF)(CF)Oc2cc(C(F)(F)F)ccc21` [Example 95, 1-[(4R)-2,2-bis(fluoromethyl)-7-(trifluoromethyl)-3,4-dihydro-2H-chromen-4-yl]-3-[(2S)-5-fluoro-2-hydroxy-2,3-dihydro-1H-inden-4-yl]urea]: the IC50 in test [1] stood at 170 nM. The “human TRPV1 H+ (max % remain)” value in test [2] came out at 46%.
Take `C[C@@]1(CF)C[C@@H](NC(=O)Nc2cccc3c2C[C@H](O)C3)c2ccc(Cl)cc2O1` [Example 16, 1-[(2S,4R)-7-chloro-2-(fluoromethyl)-2-methyl-3,4-dihydro-2H-chromen-4-yl]-3-[(2R)-2-hydroxy-2,3-dihydro-1H-inden-4-yl]urea]: the IC50 in test [1] was found to be 37 nM. Moreover, the “human TRPV1 H+ (max % remain)” value in test [2] stood at 57%.
In the case of `O=C(Nc1cccc2c1C[C@H](O)C2)N[C@@H]1CCc2cc(Cl)ccc21` [Example 39, 1-[(1R)-5-chloro-2,3-dihydro-1H-inden-1-yl]-3-[(2R)-2-hydroxy-2,3-dihydro-1H-inden-4-yl]urea], in test [1], the 50% inhibitory concentration (IC50) amounted to 25 nM. Besides, the “human TRPV1 H+ (max % remain)” value in test [2] is 46%.
Regarding `COc1ccc(C2CC(NC(=O)Nc3cccc4c3CC(O)C4)c3ccccc3O2)cc1OC` (stereo not drawn) [Example 113, 1-[2-(3,4-dimethoxyphenyl)-3,4-dihydro-2H-chromen-4-yl]-3-(2-hydroxy-2,3-dihydro-1H-inden-4-yl)urea], in test [1], the half-inhibitory concentration (IC50) was > 38000 nM. For the same compound, the “human TRPV1 H+ (max % remain)” value in test [2] came out at 74%.
On to `O=C(Nc1ccc(F)c2c1C[C@@H](O)C2)N[C@@H]1CC(CF)(CF)Oc2cc(OC(F)(F)F)ccc21` [Example 159, 1-[(4R)-2,2-bis(fluoromethyl)-7-(trifluoromethoxy)-3,4-dihydro-2H-chromen-4-yl]-3-[(2R)-7-fluoro-2-hydroxy-2,3-dihydro-1H-inden-4-yl]urea], for which the concentration for half-maximal inhibition (IC50) in test [1] amounted to 420 nM. Further, in test [2], the “human TRPV1 H+ (max % remain)” value is 36%.
In the case of `O=C(Nc1cccc2c1C[C@@H](O)C2)N[C@@H]1CCOc2cc(OC(F)(F)F)ccc21` [Example 37, 1-[(2S)-2-hydroxy-2,3-dihydro-1H-inden-4-yl]-3-[(4R)-7-(trifluoromethoxy)-3,4-dihydro-2H-chromen-4-yl]urea], the IC50 in test [1] was found to be 17 nM. The “human TRPV1 H+ (max % remain)” value in test [2] is listed as 4%.
On the same counts, the results for `O=C(Nc1ccc(F)c2c1C[C@@H](O)C2)N[C@@H]1CCOc2cc(OC(F)(F)F)ccc21` [Example 168, 1-[(2R)-7-fluoro-2-hydroxy-2,3-dihydro-1H-inden-4-yl]-3-[(4R)-7-(trifluoromethoxy)-3,4-dihydro-2H-chromen-4-yl]urea] are 850 nM and 70%.
For the compound `O=C(Nc1cccc2c1CC(O)C2)NC1c2ccccc2CC1Cc1ccc(Cl)c(Cl)c1` (stereo not drawn) [Example 124, 1-[2-(3,4-dichlorobenzyl)-2,3-dihydro-1H-inden-1-yl]-3-(2-hydroxy-2,3-dihydro-1H-inden-4-yl)urea], the IC50 in test [1] is > 38000 nM. Also, the “human TRPV1 H+ (max % remain)” value in test [2] is reported as 63%.
Turning to `CCC1(CC)C[C@@H](NC(=O)Nc2cccc3c2C[C@H](O)C3)c2ccccc2O1` [Example 49, 1-[(4R)-2,2-diethyl-3,4-dihydro-2H-chromen-4-yl]-3-[(2R)-2-hydroxy-2,3-dihydro-1H-inden-4-yl]urea], the IC50 in test [1] came out at 22 nM. Moreover, in test [2], the “human TRPV1 H+ (max % remain)” value was found to be 75%.
In the case of `O=C(Nc1cccc2c1C[C@@H](O)C2)N[C@@H]1CC(CF)(CF)Oc2cc(OC(F)(F)F)ccc21` [Example 76, 1-[(4R)-2,2-bis(fluoromethyl)-7-(trifluoromethoxy)-3,4-dihydro-2H-chromen-4-yl]-3-[(2S)-2-hydroxy-2,3-dihydro-1H-inden-4-yl]urea], the concentration for half-maximal inhibition (IC50) in test [1] is 32 nM. Besides, in test [2], the “human TRPV1 H+ (max % remain)” value is 1%.
On the same counts, the results for `O=C(Nc1cccc2c1C[C@H](O)C2)N[C@@H]1CCc2cc(OC(F)(F)F)ccc21` [Example 106, 1-[(2R)-2-hydroxy-2,3-dihydro-1H-inden-4-yl]-3-[(1R)-5-(trifluoromethoxy)-2,3-dihydro-1H-inden-1-yl]urea] are 56 nM and 26%.
Regarding `CC1(C)C[C@@H](NC(=O)Nc2cccc3c2C[C@H](O)C3)c2ccc(C(F)(F)F)cc2O1` [Example 3, 1-[(4R)-2,2-dimethyl-7-(trifluoromethyl)-3,4-dihydro-2H-chromen-4-yl]-3-[(2R)-2-hydroxy-2,3-dihydro-1H-inden-4-yl]urea], the IC50 in test [1] worked out at 27 nM. In test [2], the “human TRPV1 H+ (max % remain)” value was found to be 55%.
The matching figures for “1-[(4R)-2,2-dimethyl-8-(trifluoromethoxy)-3,4-dihydro-2H-chromen-4-yl]-3-[(2R)-7-fluoro-2-hydroxy-2,3-dihydro-1H-inden-4-yl]urea [Example 172]”: 32 nM and 47%.
On the same counts, the results for `COCC1(COC)C[C@@H](NC(=O)Nc2cccc3c2C[C@H](O)C3)c2cc(F)ccc2O1` [Example 68, 1-[(4R)-6-fluoro-2,2-bis(methoxymethyl)-3,4-dihydro-2H-chromen-4-yl]-3-[(2R)-2-hydroxy-2,3-dihydro-1H-inden-4-yl]urea] are 970 nM and 79%.
With `CN1CC[C@@H](NC(=O)Nc2cccc3c2C[C@@H](O)C3)c2ccc(C(F)(F)F)cc21` [Example 84, 1-[(2S)-2-hydroxy-2,3-dihydro-1H-inden-4-yl]-3-[(4R)-1-methyl-7-(trifluoromethyl)-1,2,3,4-tetrahydroquinolin-4-yl]urea], the IC50 in test [1] came to 80 nM. Further, the “human TRPV1 H+ (max % remain)” value in test [2] is on record as 13%.

The record behind these values is patent US8859584B2, “TRPV1 antagonists” (AbbVie Inc., priority 2011, dated 2014).
